*1 amine or outer side, *2 acyl side, *3 side chain or, on linkers, in order; H or OH if unused. Where a SMILES comes first, the peptide text is derived from it. [ ]: non-standard residue; d: D form. The star is where a group is joined. Dolaproine = CO[C@@H]([C@@H]1CCCN1)[C@@H](C)C(=O)O; Dil = CC[C@H](C)[C@H](NC)[C@@H](CC(=O)O)OC; Met(O2) = CS(=O)(=O)CC[C@H](N)C(=O)O; PABC = O=C(OCc1ccc(N[*:1])cc1)[*:2]; X1 = C[C@@H](N*)[C@@H](O)c1ccccc1; tBuAla = CC(C)(C)C[C@H](N)C(=O)O; Cit = NC(=O)NCCC[C@H](N)C(=O)O; NMeV = CN[C@H](C(=O)O)C(C)C; Cbz = O=C(OCc1ccccc1)*
What was measured:
[1] = ADC stability in mouse serum (free MMAE by LC-MS/MS); format: in vitro ADME; conditions: anti-TROP-2 sacituzumab-based ADCs, up to 1 week, 37 °C
Method: Selected ADCs were incubated at 0.1 mg/mL in 100 μL of plasma samples for 24, 48, 72, and 168 h at 37 °C. The samples were then frozen at −80 °C and subjected to LC-MS/MS analysis. Stock solutions of MMAE and MMAE-d 8 standards were prepared in DMSO at a concentration of 10 mM and stored at −20 °C until use. Calibration solutions were prepared by diluting the stock solutions with methanol/ethanol (50:50, v/v). Mouse and human serum were purchased from Sigma-Aldrich. The concentration of MMAE in serum samples was determined based on the method described by Mak et al., with minor modifications. Briefly, 10 μL of serum was spiked with 5 μL of 25 nM MMAE-d 8 as an internal standard (IS), followed by the addition of 35 μL of ice-cold ethanol/methanol (50:50, v/v). The mixture was vortexed for 5 min and then incubated at − 20 °C for 30 min to precipitate proteins. The samples were subsequently centrifuged for 30 min at 20,000 × g and 4 °C. The supernatant was collected and subjected to LC-MS analysis. A Waters Acquity Premier UPLC system (Massachusetts, USA), consisting of a binary pump, thermostatic column holder, and refrigerated sample manager, was used for chromatographic separation. Separation was performed on an Acquity UPLC BEH C18 column (2.1 × 50 mm, 1.7 μm) using 0.1% formic acid in water as mobile phase A and 0.1% formic acid in methanol as mobile phase B. The column temperature and sample manager temperature were maintained at 45 and 15 °C, respectively. The injection volume was 1 μL, and the flow rate was 0.3 mL/min. The gradient started at 20% B, increased to 90% B over 3 min, and was held at 90% B for 2 min. Finally, the column was equilibrated back to 20% B for 1 min. The total run time was 6 min. MS analysis was performed using a Waters Xevo TQ-Absolute XR triple quadrupole mass spectrometer (Massachusetts, USA) equipped with an electrospray ionization interface. Samples were analyzed in positive multiple reaction monitoring (MRM) mode. […] MMAE and MMAE-d8 were detected based on their characteristic MRM transitions and retention times. […]

MDA-MB-231 cells = assay: MTS cell viability assay, MDA-MB-231; format: cell-based, human; conditions: TROP-2-positive MDA-MB-231 cells
Method: The BT-474 (ATCC HTB-20, RRID: CVCL_0179), MCF-7 (ATCC HTB-22, RRID: CVCL_0031), and MDA-MB-231 (ATCC HTB-26, RRID: CVCL_0062) breast cancer cell lines were cultured at 37 °C in a humidified incubator with 5% CO2. Cells were maintained in Dulbecco’s Modified Eagle Medium (DMEM; Gibco, Cat. No. 41965−039) supplemented with 10% fetal bovine serum (FBS; Gibco, Cat. No. A5256801), L-glutamine, sodium pyruvate, penicillin […], and streptomycin (0.1 mg/mL). All cell lines were routinely tested for mycoplasma contamination (every 12−16 weeks) using a PCR-based detection kit.
Cell viability was evaluated using the MTS assay (CellTiter 96 AQueous One Solution Cell Proliferation Assay, Promega, Cat. No. G358B) according to the manufacturer’s instructions. BT-474 cells were seeded at a density of 20,000 cells/well, while MCF-7 and MDA-MB-231 cells were seeded at 5,000 cells/well in 96-well plates and allowed to adhere overnight. Peptide prodrugs, free MMAE (used as a control), or ADCs were added in serial dilutions. For peptide prodrugs and MMAE, concentrations ranged from 0.001 to 10 μM; for ADCs, from 0.03 to 3 μM. […] Absorbance was measured at 490 nm. Background absorbance (blank wells) was subtracted from all readings, and cell viability was calculated as a percentage relative to untreated controls. […]

cathepsins B, L, and V = assay: Prodrug cleavage / MMAE release by LC-MS, other cathepsins; format: biochemical, human; conditions: prodrug 50 μM, pH 5.5, 37 °C
Method: (§1) Cleavage assays were conducted at 37 °C in 1 mL reaction volumes using acetate buffer composed of 100 mM sodium acetate (pH 5.5), 100 mM NaCl, 1 mM EDTA, and 5 mM DTT. Buffers were prepared at room temperature and equilibrated before use. Prodrugs were initially dissolved in DMSO at a stock concentration of 10 mM, then diluted into the reaction buffer to a final concentration of 50 μM, maintaining a DMSO concentration below 0.5% (v/v). Reactions were initiated by the addition of recombinant cathepsin and carried out in glass LC-MS vials incubated at 37 °C. At specified time points (0, 5, 30, 60, and 120 min), aliquots were taken and directly injected into the LC-MS system without further processing. Quantification of MMAE release was based on absorbance at 220 nm. The area under the MMAE peak was integrated, and the amount of released MMAE was plotted as a function of time. Each time point was measured in triplicate, and results are presented as mean ± standard deviation (SD). A standard curve was prepared using free MMAE at concentrations of 1, 5, 10, 20, and 50 μM to enable accurate quantification of MMAE released from the prodrugs.

Cathepsin S [2] = target: T1, Cathepsin S (Homo sapiens, UniProt P25774); assay: Prodrug cleavage / MMAE release by LC-MS, cathepsin S; format: biochemical; conditions: prodrug 50 μM, pH 5.5, 37 °C, 0-120 min
T1 construct: made in house
T1 sequence (P25774 115-331): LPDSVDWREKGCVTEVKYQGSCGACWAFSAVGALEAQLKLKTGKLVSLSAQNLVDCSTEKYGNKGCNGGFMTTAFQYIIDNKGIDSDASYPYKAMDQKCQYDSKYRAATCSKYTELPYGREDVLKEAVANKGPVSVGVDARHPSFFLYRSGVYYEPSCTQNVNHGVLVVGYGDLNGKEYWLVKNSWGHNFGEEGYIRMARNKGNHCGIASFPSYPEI
Method: as §1

Cathepsin B [3] = target: T2, Cathepsin B (Homo sapiens, UniProt P07858); assay: Labeling of cathepsin B in MDA-MB-231 live cells with Cy5 probes; format: cell-based; set-up: endogenous in cells; host or cells: MDA-MB-231; conditions: cellular environments; probe labeling
Method: (§2) 50,000 of MDA-MB-231 cells were seeded into 12-well plate and allowed to attach overnight. The next day, OG-233 and OG-234 probes (1 μM final concentration) were added to the cells and incubated for various times (from 0,5 h up to 24 h). Control cells were preincubated with cathepsin S inhibitors (JN1, JN4, JN7) at 25 μM for 2 h, and then incubated with OG-233 or OG-234 probes for 24 h. Next, cells were harvested and prepared for SDS-PAGE analysis as described in the above section. Electrophoresis was run for 25 min (4−12% Bis-Tris Plus 10-well gel, 200 V). Next, proteins were transferred onto the membrane (0.2 μm nitrocellulose membrane, 10 V, 60 min) and Ponceau S was used to verify equal loading and transfer. Membranes were then blocked with 5% BSA in TBS-T buffer for 1 h at RT. Membranes were next incubated anticathepsin S antibody (1:1,000, overnight, 4 °C), and the next day with a secondary antibody (IRDye 800CW, donkey anti-Goat) for 30 min at RT, and scanned at 680 and 800 nm using the Sapphire biomolecular imager (Azure Biosystems) to detect the Cy5 probes and cathepsin S. All images were analyzed with Image Studio software.

Cathepsin B [4] = target: T2, Cathepsin B; assay: Second-order rate constants of inhibition (kobs/[I]), cathepsin B; format: biochemical; set-up: made in house; conditions: Figure 4D; Cy5- and BODIPY-labeled probes
Method: (§3) All kinetic studies were performed using an fMax fluorescence plate reader (Molecular Devices) in kinetic mode with 96- or 384-well plates. ACC fluorescence was monitored at excitation and emission wavelengths of 355 and 460 nm, respectively. Recombinant human cysteine cathepsins L, V, B, K, and S were expressed and purified as previously described. Prior to use, all cysteine cathepsins were titrated with E64 to normalize enzymatic activity. Assays for cathepsins were conducted in 100 mM sodium acetate buffer containing 10 mM NaCl and 10 mM DTT (pH 5.5). Breast cancer cell lysates (BT-474, MCF-7, MDA-MB-231) were prepared by culturing cells to confluence in the appropriate media, replacing media with PBS, and harvesting the cells using a cell scraper (without trypsin). The cells were pelleted by centrifugation (400 × g, 5 min), resuspended in PBS, and centrifuged again under the same conditions. After removal of the supernatant, the pellet was resuspended in cathepsin assay buffer (excluding DTT) and sonicated. Lysates were then clarified by centrifugation (12,000 × g, 5 min), and the supernatants were collected and stored at −80 °C until use. All enzymatic assays, including HyCoSuL library screening and kinetic analyses of synthetic substrates, inhibitors, probes and prodrugs, were conducted at 37 °C and repeated at least three times. Mean values are reported. Kinetic data were analyzed using GraphPad Prism software (version 10.4.1).
(§4) The second-order rate constants of inhibition (k obs/[I]) were determined for human recombinant cathepsins S, B, L, and V using their respective assay buffers. All measurements were performed under pseudo-first-order kinetic conditions, as previously described. Inhibitors or ABPs were serially diluted in assay buffer and transferred to a 96-well plate. Each well was supplemented with the fluorogenic substrate Cbz-Phe-Arg-AMC at a final concentration of 25 μM and preincubated for 15 min. In parallel, enzymes were preactivated in assay buffer for 15 min at room temperature. Following preincubation, the activated enzymes were added to the wells, and fluorescence was monitored immediately for 30 min. The k obs/[I] values (M^-1S^-1) were calculated from the progress curves and averaged from at least three independent experiments. Final inhibitor (or ABP) concentrations were maintained at a minimum of 5-fold excess relative to enzyme concentrations to ensure pseudo-first-order conditions. Results were analyzed in GraphPad Prism and are reported as mean ± standard deviation.

Cathepsin L = target: T3, Cathepsin L (Homo sapiens, UniProt P07711); assay: Second-order rate constants of inhibition (kobs/[I]), cathepsin L; format: biochemical; conditions: Figure 4D; Cy5- and BODIPY-labeled probes
T3 construct: made in house
T3 sequence (P07711 114-333): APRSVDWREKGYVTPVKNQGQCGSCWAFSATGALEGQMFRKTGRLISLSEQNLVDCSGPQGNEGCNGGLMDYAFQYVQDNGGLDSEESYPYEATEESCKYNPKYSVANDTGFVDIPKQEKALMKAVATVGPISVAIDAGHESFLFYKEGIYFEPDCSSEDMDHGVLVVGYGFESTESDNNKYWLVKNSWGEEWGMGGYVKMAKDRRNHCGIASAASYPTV
Method: as §3, §4

[5] = target: T4, active cathepsin S in MDA-MB-231 live cells (Homo sapiens, UniProt P25774); assay: Labeling of active cathepsin S in MDA-MB-231 live cells with Cy5 probes; format: cell-based; conditions: probe 1 μM, 0,5 to 24 h
T4 construct: endogenous in cells; host or cells: MDA-MB-231
T4 sequence (P25774 115-331): as the sequence (P25774 115-331) above
Method: as §2

Cathepsin S [6] = target: T1, Cathepsin S; assay: Second-order rate constants of inhibition (kobs/[I]), cathepsin S; format: biochemical; conditions: Figure 4D
Method: as §3, §4

Cathepsin V = target: T5, Cathepsin V (Homo sapiens, UniProt O60911); assay: Second-order rate constants of inhibition (kobs/[I]), cathepsin V; format: biochemical; conditions: Figure 4D; Cy5- and BODIPY-labeled probes
T5 construct: made in house
T5 sequence (O60911 114-334): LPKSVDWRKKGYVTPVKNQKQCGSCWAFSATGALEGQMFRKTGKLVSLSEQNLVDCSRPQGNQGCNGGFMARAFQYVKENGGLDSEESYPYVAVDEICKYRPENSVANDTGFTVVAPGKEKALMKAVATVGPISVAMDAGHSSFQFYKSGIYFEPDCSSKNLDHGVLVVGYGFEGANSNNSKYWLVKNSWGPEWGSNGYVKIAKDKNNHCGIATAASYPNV
Method: as §3, §4

Molecule	payload release [1]	cytotoxicity of sacituzumab (anti-TROP-2) ADCs (MDA-MB-231 cells)	cleavage / free MMAE release by other cathepsins (cathepsins B, L, and V)	cleavage / free MMAE release by cathepsin S (Cathepsin S [2])	further results
313 anti-TROP-2 ADC: sacituzumab (anti-TROP-2) ADC with Phe(F5)-Cit-Lys(2ClZ)-Glu(Me) linker, PABC spacer and MMAE payload	approximately 6%	moderate toxicity	–	–	–
314 anti-TROP-2 ADC: sacituzumab (anti-TROP-2) ADC with Met(O2)-Cit-NptGly-Glu(Me) linker, PABC spacer and MMAE payload	approximately 6%	markedly more potent	–	–	–
CC[C@H](C)[C@@H]([C@@H](CC(=O)N1CCC[C@H]1[C@H](OC)[C@@H](C)C(=O)N[C@H](C)[C@@H](O)c1ccccc1)OC)N(C)C(=O)[C@@H](NC(=O)[C@H](C(C)C)N(C)C(=O)OCc1ccc(NC(=O)[C@H](CCCNC(N)=O)NC(=O)[C@@H](NC(=O)OCc2ccccc2)C(C)C)cc1)C(C)C [compound 300, Cbz-Val-Cit-PABC-MMAE, reference compound] (Cbz-V[Cit][PABC][NMeV]V[Dil][Dolaproine]-X1; N-terminus and C-terminus assumed)	–	–	efficiently cleaved by cathepsins S, B, L, and V	efficiently cleaved by cathepsins S, B, L, and V	–
CC[C@H](C)[C@@H]([C@@H](CC(=O)N1CCC[C@H]1[C@H](OC)[C@@H](C)C(=O)N[C@H](C)[C@@H](O)c1ccccc1)OC)N(C)C(=O)[C@@H](NC(=O)[C@H](C(C)C)N(C)C(=O)OCc1ccc(NC(=O)[C@H](CCC(=O)OC)NC(=O)[C@H](CC(C)(C)C)NC(=O)[C@H](CCCNC(N)=O)NC(=O)[C@H](CCS(C)(=O)=O)NC(C)=O)cc1)C(C)C [compound 314, Ac-Met(O2)-Cit-NptGly-Glu(Me)-PABC-MMAE] (Ac-[Met(O2)][Cit][tBuAla]E(OMe)[PABC][NMeV]V[Dil][Dolaproine]-X1)	–	–	moderate cross-reactivity toward other cathepsins	also cleaved by cathepsin S	–
ADC 300: sacituzumab (anti-TROP-2) ADC with pan-cathepsin Val-Cit linker, PABC spacer and MMAE payload	1.5%	–	–	–	–
Cy5-PEG(4)-Met(O2)-Cit-NptGly-Glu(Me)-AOMK [OG-234]	–	–	–	–	off-target labeling of cathepsin B in cells (Cathepsin B [3]): minor off-target labeling of cathepsin B; kobs/[I] Cath B (Cathepsin B [4]): 11,200 M^-1s^-1; kobs/[I] Cath L (Cathepsin L): 5,530 M^-1s^-1; detection of active cathepsin S in living cells [5]: able to detect active cathepsin S as soon as upon 3 h incubation; kobs/[I] Cath S (Cathepsin S [6]; Cy5- and BODIPY-labeled probes): 253,000 M^-1s^-1; Selectivity S to B (Cathepsin S [6]; calculated from kobs/[I], cathepsin S over cathepsin B): 23; Selectivity S to L (Cathepsin S [6]; calculated from kobs/[I], cathepsin S over cathepsin L): 46; Selectivity S to V (Cathepsin S [6]; calculated from kobs/[I], cathepsin S over cathepsin V): 32; kobs/[I] Cath V (Cathepsin V): 7,900 M^-1s^-1

Reference: paper PMC13403234, “Engineering Cathepsin S Selective Chemical Probes and Antibody−Drug Conjugates through Substrate Profiling with Unnatural Amino Acids” (Journal of Medicinal Chemistry, 2026)
